Data on 42 compounds can be found in patent US5874432A, “Saccharin derivatives useful as proteolytic enzyme inhibitors and compositions and method of use thereof” (priority 1997, dated 1999).

For the test, the target named is T1, human leukocyte elastase (Homo sapiens, UniProt P08246).
T1 sequence (P08246 30-267): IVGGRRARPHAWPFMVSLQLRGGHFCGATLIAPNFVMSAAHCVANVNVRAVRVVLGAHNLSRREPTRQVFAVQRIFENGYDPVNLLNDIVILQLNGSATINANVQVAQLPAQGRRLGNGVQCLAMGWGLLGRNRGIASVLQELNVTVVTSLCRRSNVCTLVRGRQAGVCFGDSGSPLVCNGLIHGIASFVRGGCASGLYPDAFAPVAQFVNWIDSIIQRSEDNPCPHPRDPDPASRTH
In words: elastase inhibition using human leukocyte elastase (kon and Ki*). The test is classed as biochemical. The following applies: for Ki: Ki* = koff/kon, read-out: Elastase Ki *; for kon: read-out: Elastase 10^-3 × kon.

Setting [1] is: rate of inactivation of enzyme, value is 10^-3 × kon.

Like-named read-outs stand apart in the source and are kept apart here.

Description: Thus, instead of measuring a Ki, a Ki * is calculated which is defined as the ratio of the koff /kon, the rate of reactivation of the enzyme to the rate of inactivation of the enzyme. The values of koff and kon are measured and Ki * is then calculated.
The rate of inactivation, kon, of enzymatic activity was determined for the compounds tested by measuring the enzyme activity of an aliquot of the respective enzyme as a function of time after addition of the test compound. […] The rate of inactivation is then equal to [formula] where [I] is the concentration of the inhibiting compound.
The reactivation constant, koff, is similarly determined and the inhibition constant, Ki *, is then calculated as

The term Ki denotes a dissociation constant, usually derived from enzyme kinetics or from competition with a known ligand. As usually defined, the kon is the second-order rate constant of association. On to `O=C1c2c(Cl)cccc2S(=O)(=O)N1CSc1nnnn1-c1ccccc1` [Example 4, 4-chloro-2-(1-phenyl-1H-tetrazol-5-ylthiomethyl)saccharin], for which the inhibition constant Ki amounted to 0.012 µM. Moreover, the on-rate (kon) under setting [1] came to 20000 M⁻¹ s⁻¹.
For the compound `O=C1c2ccccc2S(=O)(=O)N1CSc1nnnn1C1CCCCC1` [Example 9, 2-(1-cyclohexyl-1H-tetrazol-5-ylthiomethyl)saccharin], the kon under setting [1] was determined as 2500 M⁻¹ s⁻¹.
For `O=C1c2cc([N+](=O)[O-])ccc2S(=O)(=O)N1CSc1nnnn1-c1ccccc1` [Example 11, 5-nitro-2-(1-phenyl-1H-tetrazol-5-ylthiomethyl)saccharin], the kon was determined as 4600 M⁻¹ s⁻¹.
As for `O=C1c2ccccc2S(=O)(=O)N1COc1ccc([N+](=O)[O-])cc1` [Example 15, 2-(4-nitrophenoxymethyl)saccharin], the Ki is 0.069 µM. Under setting [1], the on-rate (kon) is 3200 M⁻¹ s⁻¹.
`O=C(CC(c1ccccc1)c1ccccc1)Nc1ccc2c(c1)C(=O)N(CSc1nnnn1-c1ccccc1)S2(=O)=O` [Example 16, 5-(3,3-diphenylpropionamido)-2-(1-phenyl-1H-tetrazol-5-ylthiomethyl)saccharin]: the inhibition constant Ki was determined as 2.6 µM.
In the case of `COC(=O)C(Sc1nnnn1-c1ccccc1)N1C(=O)c2ccccc2S1(=O)=O` (stereo not drawn) [Example 17, methyl 2-(1-phenyl-1H-tetrazol-5-ylthio)-2-(2-saccharinyl)acetate], the inhibition constant Ki was determined as 0.27 µM. Besides, under setting [1], the kon is 2900 M⁻¹ s⁻¹.
Turning to `O=C1c2ccccc2S(=O)(=O)N1C(Sc1nnnn1-c1ccccc1)c1ccccc1` (stereo not drawn) [Example 19, 2-(1-phenyl-1H-tetrazol-5-ylthiophenylmethyl)saccharin], the inhibition constant Ki was found to be 8.5 µM.
For `O=C1c2c(Br)cccc2S(=O)(=O)N1CCl` [Example 21, 2-chloromethyl-4-bromosaccharin], the Ki was determined as 0.0005 µM. Under setting [1], the kon was 950000 M⁻¹ s⁻¹.
As for `COc1cccc2c1C(=O)N(CCl)S2(=O)=O` [Example 22A, 2-chloromethyl-4-methoxysaccharin], the Ki came out at 0.006 µM. The kon under setting [1] is 12400 M⁻¹ s⁻¹.
Regarding `CCC(C)c1cccc2c1C(=O)N(CCl)S2(=O)=O` (stereo not drawn) [Example 22B, 2-chloromethyl-4-sec.-butylsaccharin], the inhibition constant Ki amounted to 0.09 µM. Also, under setting [1], the kon amounted to 2400 M⁻¹ s⁻¹.
Take `CCC(CC)c1cccc2c1C(=O)N(CCl)S2(=O)=O` [Example 22C, 2-chloromethyl-4-(3-pentyl) saccharin]: the Ki is 0.0004 µM. The kon under setting [1] was 105000 M⁻¹ s⁻¹.
Consider `O=C1c2cccc(Cl)c2S(=O)(=O)N1CCl` [Example 22D], for which the Ki turned out to be 0.0013 µM. The kon under setting [1] is 75800 M⁻¹ s⁻¹.
On to `CC(C)c1cccc2c1C(=O)N(CCl)S2(=O)=O` [Example 22E, 2-chloromethyl-4-isopropylsaccharin], for which the Ki amounted to 0.091 µM. Under setting [1], the kon was found to be 4700 M⁻¹ s⁻¹.
Regarding `COc1ccc2c(c1OC)C(=O)N(CCl)S2(=O)=O` [Example 22F], the inhibition constant (Ki) was 0.0065 µM. The kon under setting [1] is 20000 M⁻¹ s⁻¹.
Turning to `COC(=O)c1cccc2c1C(=O)N(CCl)S2(=O)=O` [Example 22G], the Ki was 0.05 µM. For the same compound, the on-rate constant (kon) under setting [1] amounted to 3000 M⁻¹ s⁻¹.
As to `CCOc1cccc2c1C(=O)N(CCl)S2(=O)=O` [Example 22H], the Ki is 0.0012 µM. For the same compound, the kon under setting [1] turned out to be 25000 M⁻¹ s⁻¹.
For `O=C1c2ccccc2S(=O)(=O)N1CF` [Example 27, 2-fluoromethylsaccharin], the inhibition constant Ki stood at 0.013 µM. The on-rate (kon) under setting [1] is 7500 M⁻¹ s⁻¹.
Regarding `CCc1cccc2c1C(=O)N(CCl)S2(=O)=O` [Example 28], the Ki came out at 0.0025 µM. Further, the “Elastase 10^-3 × kon” value under setting [1] stood at 50.7 M^-1 sec^-1.
As to `Cc1ccc(C)c2c1C(=O)N(CCl)S2(=O)=O` [Example 29, 2-chloromethyl-4,7-dimethylsaccharin], the inhibitory constant (Ki) was 0.12 µM. In addition, under setting [1], the association rate constant (kon) stood at 1100 M⁻¹ s⁻¹.
For `O=C(O)c1cccc(-n2nnn(CN3C(=O)c4ccccc4S3(=O)=O)c2=S)c1` [Example 30-O], the inhibition constant Ki stood at 2 µM. Further, under setting [1], the kon is 30 M⁻¹ s⁻¹.
In the case of `Cc1nnc(SCN2C(=O)c3ccccc3S2(=O)=O)s1` [Example 30AB], the Ki was found to be 0.023 µM. Moreover, under setting [1], the on-rate (kon) is 2800 M⁻¹ s⁻¹.
With `Cn1cnnc1SCN1C(=O)c2ccccc2S1(=O)=O` [Example 30AC], the on-rate (kon) under setting [1] was 190 M⁻¹ s⁻¹.
As for `CSc1nn(CN2C(=O)c3ccccc3S2(=O)=O)c(=S)s1` [Example 30AD], the inhibition constant (Ki) turned out to be 0.0116 µM. Under setting [1], the kon was 7000 M⁻¹ s⁻¹.
In the case of `O=C1c2ccccc2S(=O)(=O)N1CSc1nc(-c2ccccc2)ns1` [Example 30AF], the inhibitory constant (Ki) came to 0.0125 µM. Besides, the “Elastase 10^-3 × kon” value under setting [1] is 4.2 M^-1 sec^-1.
On to `O=C1c2ccccc2S(=O)(=O)N1CSc1nnc(S)s1` [Example 30AH], for which the inhibition constant (Ki) amounted to 0.06 µM. For the same compound, the kon under setting [1] is 1100 M⁻¹ s⁻¹.
The like results for `CC(C)c1cccc2c1C(=O)N(Cn1nnn(-c3ccccc3)c1=S)S2(=O)=O` [Example 30AJ] were, in that order, 0.0155 µM and 1800 M⁻¹ s⁻¹.
Take `Cc1nnc(SCN2C(=O)c3c(C(C)C)cccc3S2(=O)=O)s1` [Example 30AM]: the Ki amounted to 0.0045 µM. Further, the on-rate (kon) under setting [1] was determined as 12300 M⁻¹ s⁻¹.
Regarding `CC(C)c1cccc2c1C(=O)N(CSc1nnnn1C)S2(=O)=O` [Example 30AN], the inhibition constant (Ki) came to 0.03 µM. Further, the kon under setting [1] turned out to be 19000 M⁻¹ s⁻¹.
Consider `CCOC(=O)Cn1nnnc1SCN1C(=O)c2ccccc2S1(=O)=O` [Example 30AP], for which the inhibition constant (Ki) was found to be 0.051 µM. For the same compound, the kon under setting [1] turned out to be 1300 M⁻¹ s⁻¹.
Turning to `O=C1c2ccccc2S(=O)(=O)N1CSc1nnnn1CCO` [Example 30AQ], the inhibition constant Ki came to 0.26 µM. The kon under setting [1] turned out to be 900 M⁻¹ s⁻¹.
As for `COC(=O)c1cn(-c2ccccc2)c(SCN2C(=O)c3ccccc3S2(=O)=O)n1` [Example 30AR], the inhibition constant Ki came out at 0.153 µM. Moreover, the association rate constant (kon) under setting [1] worked out at 300 M⁻¹ s⁻¹.
For `CN(C)C(=O)Cn1nnnc1SCN1C(=O)c2ccccc2S1(=O)=O` [Example 30AS], the inhibitory constant (Ki) stood at 0.04 µM. Under setting [1], the kon is 1700 M⁻¹ s⁻¹.
As to `CCOc1cccc2c1C(=O)N(CSc1nnnn1-c1ccccc1)S2(=O)=O` [Example 30AT], under setting [1], the kon is 45300 M⁻¹ s⁻¹.
`CC(C)Oc1cccc2c1C(=O)N(CSc1nnnn1-c1ccccc1)S2(=O)=O` [Example 30AU]: the kon under setting [1] was 8900 M⁻¹ s⁻¹.
For `CCc1cccc2c1C(=O)N(CSc1nnnn1CC(=O)N(C)C)S2(=O)=O` [Example 30AV], the Ki stood at 0.015 µM. Further, the kon under setting [1] was 7600 M⁻¹ s⁻¹.
On to `CC(C)c1cccc2c1C(=O)N(CSc1nnnn1CC(=O)N(C)C)S2(=O)=O` [Example 30AW], for which the inhibition constant Ki worked out at 0.001 µM. In addition, under setting [1], the kon amounted to 30000 M⁻¹ s⁻¹.
As to `CCOc1cccc2c1C(=O)N(CSc1nnnn1CC(=O)N(C)C)S2(=O)=O` [Example 30AX], the inhibitory constant (Ki) amounted to 0.016 µM. The kon under setting [1] came to 7500 M⁻¹ s⁻¹.
In the case of `CC(C)(C)CC(C)(C)c1ccc2c(c1)C(=O)N(CSc1nnnn1-c1ccccc1)S2(=O)=O` [Example 30A], the Ki turned out to be 10.5 µM.
Regarding `O=C1c2c(-c3ccccc3)cccc2S(=O)(=O)N1CSc1nnnn1-c1ccccc1` [Example 30BC], the association rate constant (kon) under setting [1] is 5800 M⁻¹ s⁻¹.
Take `O=C1c2ccccc2S(=O)(=O)N1CSc1nc2ccc([N+](=O)[O-])cc2s1` [Example 30BD]: the inhibition constant Ki is 0.008 µM. Further, the kon under setting [1] is 11700 M⁻¹ s⁻¹.
In the case of `O=C1c2ccccc2S(=O)(=O)N1CSc1nc2ccc([N+](=O)[O-])cc2o1` [Example 30BE], the inhibition constant (Ki) was 0.25 µM. Besides, the on-rate (kon) under setting [1] amounted to 7400 M⁻¹ s⁻¹.
For the compound `O=C1c2ccccc2C(=O)N1CN1C(=O)c2ccccc2S1(=O)=O` [Example 30BF], the inhibitory constant (Ki) is 40 µM. In addition, the association rate constant (kon) under setting [1] worked out at 20 M⁻¹ s⁻¹.
